Results reported in patent publication EP1785723A1, “Micro calorimetric analysis of mammalian cell susceptibility to agents that affect cell growth, metabolism and immune response, and use of micro calorimetric analysis in a transplantation test” (Stratos Bio Ltd., priority 2005, dated 2007).

Experiments:
[1] = test system: Bacillus Pumilus; experiment: Flow microcalorimetry, p-t curves of growing culture with antibiotics and mixtures; format: cell-based
Text: To the vertical face of the vessel close to its base, equidistantly spaced around the circumference, ports were fitted for an oxygen electrode and for sampling/inoculation. The fermenter was closed with a flat flanged glass lid which had five ports accommodating respectively, gas inlet tube, gas exhaust (via air condenser), inlet and outlet flow-lines to and from the calorimeter. The fermenter and lid was sealed with a p.t.f.e. gasket and clamped with a metal clip. The fermenter was placed on a magnetic stirring unit in a water jacket which allowed circulation of the thermostatically controlled water at 30°C or 37°C. The fermenter which contained a Teflon coated magnetic stirring bar, was sterilised by autoclaving.
For a typical calorimetric incubation the medium was passed through the calorimetric vessel at the same flow rate and temperature as those used in the experiment to establish a steady baseline deflection. The following operations then took place to a strict timetable. The liquid nitrogen stored ampoule was thawed at 38°C for 3 min and then stirred for 20 sec on a whirlimixer. The bacterial suspension (0.5-1.5ml) volumes was inoculated into the medium (100ml) two minutes after completion of thawing. A Gilson automatic pipette was used for inoculation. The calorimeter inlet flow-line was placed in the incubation medium 30 seconds after inoculation. […]

[2] = test system: respiring E.coli; experiment: Flow microcalorimetry, p-t curves of respiring cells in glucose buffer; format: cell-based; conditions: for Effect on power: neomycin alone added to respiring E.coli, Fig. 16; for Effect on p-t curve / power output: Polymyxin B alone, concentration not stated, Fig. 15
Method: For a typical calorimetric incubation the medium was passed through the calorimetric vessel at the same flow rate and temperature as those used in the experiment to establish a steady baseline deflection. The following operations then took place to a strict timetable. The liquid nitrogen stored ampoule was thawed at 38°C for 3 min and then stirred for 20 sec on a whirlimixer. The bacterial suspension (0.5-1.5ml) volumes was inoculated into the medium (100ml) two minutes after completion of thawing. A Gilson automatic pipette was used for inoculation. The calorimeter inlet flow-line was placed in the incubation medium 30 seconds after inoculation. The flowing incubation medium reached the calorimetric vessel two min after inlet flow-line insertion. At this time the recording of the p-t curves was started. Eight min after inoculation the outflow from the calorimeter was returned to the fermenter (after the "baseline" medium had run to waste but before the inoculated medium ran to waste) thus making a closed system. Aeration was started as soon as the inlet tube was inserted in the fermenter. Microbiological purity of the culture was checked by plating out a sample of the culture at the end of each incubation on nutrient agar (lab M).
The output of calorimetric experiments is a plot of power (energy evolution per unit of time) as a function of time. The unit of power (p) is the Watt (W) and the unit of time is the hour (h). In some experiments seconds (s) were used as time unit.
E.coli was suspended in 10% DMSO prior to freezing and the viable counts were for batch 1: pre-freeze: 4.0 ± 0.6_ x 10^10 cfu/ml and post -freeze 2.0 ± 0.44 x 10^10 cfu/ml and for batch 2: pre-freeze: 3.45 ± 0.58 x 10^10 cfu/ml and post-freeze 2.93 ± 0.43 x 10^10 cfu/ml. The freezing rate for both batches was 20°C/min the survival rate was 50% for batch 1 and 85% for batch 2. These differences may have been due to batch 1 being kept for 24h at 4°C before being frozen.
The respiration experiments were carried out in glucose buffer at different pH. The respiration curves obtained from batch 1 (inoculum 2 x 10^10 cfu/ml) and batch 2 Inoculum 3.2 x 10^10 cfu/ml) were essentially similar and a mean was used as a reference). The respiration experiments were carried out at pH 7 for polymyxin and Znbacitracin and at pH 8 for neomycin. No differences in p-t control curves could be observed at pH 7 or pH 8.
The p-t curves rose and reached a plateau as has been observed for respiration of yeasts and some 20 min later fell to a lower plateau value. Prior incubation of the cells in the buffered glucose for periods up to 20 min before presentation to the calorimeter could reduce or entirely remove this effect.

[3] = POLB 6.3 ug/ml, respiration, pH 7

Molecule | Effect on power output in growth studies ([1]; concentration not given) | Linear dose-response range ([2]; NEO, respiration, pH 8) [µg/mL] | Effect on heat output ([2]; all concentrations of Neomycin, respiring E.coli) | Effect on power ([2]; listed as Neomycin) | Effect on power ([2]; listed as neomycin) | Range of linear relationship between dose and the reciprocal of increase in response from the control curve ([2]; neomycin, respiring E.coli) [µg/mL] | Time within which growth was inhibited completely ([1]; 20ug/ml POLB, bacterial concentration printed '0?' as % of p-t curve, pH 8.00) | Observed effect on p-t curves [2, 3] | Time of return of p-t curve to baseline [2, 3] [h] | Effect on p-t curve / power output ([2]; listed as Polymyxin B) | Effect on p-t curve / power output ([2]; listed as polymyxin B)
NC[C@@H]1O[C@H](O[C@H]2[C@@H](O)[C@H](O[C@@H]3[C@@H](O)[C@H](N)C[C@H](N)[C@H]3O[C@H]3O[C@H](CN)[C@@H](O)[C@H](O)[C@H]3N)O[C@@H]2CO)[C@H](N)[C@@H](O)[C@@H]1O [NEO, neomycin] | increase in power output | 10 to 100 | caused an increased heat output | caused an increase in power output | caused an increase in power | 20 to 100 | – | – | – | – | –
Polymyxin B [POLB] | – | – | – | – | – | – | Within 9 hours growth was inhibited completely | Reduced height of p-t curve initially | ≤ 1 | reduced the initial peak height and thereafter the p-t curve returned to baseline | severe reduction in power output followed by a return to baseline
